We go through 89 molecules from a melting point compilation (Tetko et al.; mined from patent text by program, amines drawn as free bases though some values may be those of a salt).

For orientation: melting point means the temperature, or range, at which the solid turns liquid. On to `CCOc1ccc(C(=O)CCC(=O)Nc2sc(-c3ccccc3)nc2-c2ccccc2)cc1`, for which the melting point is 169 to 170 °C.

The molecule `CCCc1c(OCCCCSCCC(=O)O)ccc(C(C)=O)c1O` showed a melting point of 75 to 77 °C.

As to `O=C(CCO)N[C@H]1CC[C@H](CCN2CCN(c3nccc4c3CCO4)CC2)CC1`, the melting point came out at 173 °C.

`CCCCCCC(C(C)O)n1c(C)nc(C(N)=O)c1N` (centres undefined) displayed a melting point of 142 to 144 °C.

The molecule `N#Cc1ccc(COc2cccc(C(=O)Nc3ccc(C#N)cc3)c2)cc1` registered a melting point of 205 to 207 °C.

Consider `CSC1=Nc2ccccc2N2CCN(c3ccccc3)CCN12`, for which the melting point lay within 125 to 127 °C.

As to `CCC12CCC(=O)CC1CCc1cc(O)ccc12` (centres undefined), the melting point was 168 to 170 °C.

The molecule `CCN(CCNC(=O)c1ccc2ccccc2c1)C1CCc2ncsc2C1` (centres undefined) returned a melting point of 110 °C.

`O=c1oc(-c2ccc(OCCO)cc2)cc(O)c1SCCc1ccccc1` displayed a melting point of 123 to 125 °C.

As to `CCOP(=O)(C/C=C/CNc1c(N)c(=O)c1=O)OCC`, the melting point lay within 145 to 147 °C.

`CCOC(=O)C(=O)Nc1cccc(NC(=O)C(=O)OCC)c1Cl` came in with a melting point of 162 °C.

Regarding `CCO[C@@H](Cc1ccc(OCCc2nc(C(C)(C)C)oc2C)c2ccsc12)C(=O)O`, the melting point was in the range of 152 to 153 °C.

Consider `CC1=NN(C)c2nc(C)c(CCCl)c(=O)n2C1`, for which the melting point came to 180 °C.

Take `COc1cc2c(cc1C(F)(F)F)N(C(=O)Nc1cccs1)CC2`: the melting point lay within 240 to 244 °C.

Regarding `COC(=O)C=Cc1c(O)cccc1C#CCCCCOC1CCCCO1` (racemic), the melting point was in the range of 66 to 67.5 °C.

The molecule `CCOc1ccc2[nH]c(=O)n(CCN3CCOCC3)c2c1` gave a melting point of 107 °C.

In turn, `CC(=O)c1ccc2c(c1)CCS2(=O)=O` gave a melting point of 54 to 56 °C.

`CNc1cc(S(=O)(=O)c2ccccc2)cc(Br)n1`: the melting point fell in the range of 145 to 148 °C.

The molecule `CSc1cc(C)nc(SC)c1NC(=O)CCCCCCSc1nc2cccc(C(F)(F)F)c2o1` returned a melting point of 129 to 131 °C.

`COc1cc2c(cc1OCCN(C)C)N(C(=O)c1ccc(-c3ccc(-c4noc(C)n4)cc3C)cc1)CC2` showed a melting point of 140 to 141 °C.

In turn, `CCCCCCOc1ccc(C=C(C#N)c2cccnc2)cc1` displayed a melting point of 67 to 68 °C.

Regarding `COc1nn(C(=S)Oc2ccccc2)c(=O)n1N`, the melting point is 158 °C.

Consider `COc1cc(OC)nc(C(C)c2ccccc2NS(=O)(=O)C(F)(F)F)n1` (centres undefined), for which the melting point was 132 to 133 °C.

Consider `CCCOC1CCCC(C2NC(=O)C2C(C)O[Si](C)(C)C(C)(C)C)C1O` (centres undefined), for which the melting point lay within 119 to 121 °C.

`O=c1oc(-c2cccc(-c3ccccc3)c2)cc(O)c1Sc1ccc2ccccc2c1` displayed a melting point of 183 to 185 °C.

`CC(C)(C)c1cc(=O)n(-c2c(Cl)cc(C(F)(F)F)cc2Cl)[nH]1` displayed a melting point of 175 °C.

With `CCOc1c(Nc2cccc(C3C(C(=O)OC)=C(C)NC(C)=C3C(=O)OC)c2)c(=O)c1=O`, the melting point was 249 to 252 °C.

On to `CNCc1cccc2c1ccn2S(=O)(=O)c1ccccc1`, for which the melting point was 75 to 77 °C.

In turn, `Cc1cc(SC(C)C)c(NC(=O)CCCSc2nc3ccccc3s2)c(SC(C)C)n1` came in with a melting point of 116 to 117 °C.

Take `CSc1cc(CCC(=O)OC(C)(C)C)nc(-c2nc(=O)c3ccccc3s2)c1`: the melting point lay within 155 to 156 °C.

In the case of `COc1nc(CO)ccc1CN1CC1C#N` (centres undefined), the melting point lay in the range of 68 to 70 °C.

Take `CCOC(=O)c1cn(C2CC2)c2c(F)c(F)c(F)c(F)c2c1=O`: the melting point was in the range of 170 to 171 °C.

As to `CC(C)(C)OC(=O)c1ncn2c1COc1ccccc1-2`, the melting point lay in the range of 119 to 123 °C.

The molecule `Cc1nc(N)c2nc(C)n(CCCNC(=O)C(C)C)c2c1C` showed a melting point of 178 to 179 °C.

`Fc1ccc(-c2n[nH]cc2-c2ccnc(NC3CC3)n2)cc1` yielded a melting point of 203 to 204 °C.

Molecule `CCC(Oc1ccc(C(C)(C)CC)cc1C(C)(C)CC)C(=O)Nc1cc(O)c(NC(=O)c2ccccc2)cc1Cl` (centres undefined) yielded a melting point of 190 to 191 °C.

With `Cc1nc(-c2ccc(C#N)cc2)sc1C(=O)N1CCO[C@@](Cn2cncn2)(c2ccc(F)cc2F)[C@H]1C`, the melting point is 150 to 160 °C.

`CC(C)NCC1(O)COc2ccc([N+](=O)[O-])cc2OC1` (centres undefined) yielded a melting point of 97.5 to 99 °C.

`C=Cc1ccc(COc2ccc(COC(=O)C(=O)OCC)cc2)cc1`: the melting point was 93 °C.

Consider `CC(C)(C)OC(=O)C[C@H](NC(=O)CNC(=O)c1csc(NC(=O)NCc2ccccc2)n1)C(=O)NCc1ccccc1`, for which the melting point worked out at 123 °C.

As for `C#CC1(O)CCC2(C)C(CCC3C2CCC2(C)C(C(=O)CSCCO)CCC32)C1` (centres undefined), the melting point was 122 to 126 °C.

`COC(=O)C(O)C(CC(C)C)NC(=O)C(Cc1c[nH]cn1)NC(=O)C(CC(=O)N1CCCCC1)Cc1cccc2ccccc12` (mixture of isomers) showed a melting point of 91 to 97 °C.

`CC(=O)c1ccc(OCCCN2CCC(C(O)(c3ccc(F)cc3)c3ccc(F)cc3)CC2)c(C)c1` registered a melting point of 116 to 117 °C.

Turning to `CN(Cc1ccco1)c1nccc(Oc2ccc(NC(=O)c3cc(F)cc(N4CCCCC4)c3)c3ccccc23)n1`, the melting point fell in the range of 155 to 156 °C.

Regarding `Cc1nc2c(O)c(CC[C@@H](O)c3ccccc3)c(C(=O)N3CCC3)cc2n1C`, the melting point is 265 to 266 °C.

`O=C(Oc1cc[nH]c(=O)c1)c1ccc([N+](=O)[O-])cc1` registered a melting point of 255 to 256 °C.

For `O=c1c2ccccc2[nH]n1-c1ccccc1F`, the melting point lay in the range of 156 to 159 °C.

Molecule `COc1cc2c3cc(OC)c(OC)cc3n(S(=O)(=O)c3ccccc3)c2cc1OC` came in with a melting point of 212 to 213 °C.

The molecule `CCOC(=O)NCCC12CC(c3ccccc31)c1ccccc12` had a melting point of 122 to 123 °C.

Take `CC(=O)OCCn1ccc(=O)c(O)c1Cc1ccccc1`: the melting point lay in the range of 140 to 141 °C.

For `c1ccc(COc2ccc(-c3cc(NC(Cc4ccccc4)c4nnn[nH]4)ncn3)cc2)cc1` (centres undefined), the melting point was determined as 150 °C.

The molecule `CC(C#N)(CNC(=O)c1n[nH]cc1NC(=O)c1ccccn1)Cc1ccccc1` (centres undefined) registered a melting point of 196 to 197 °C.

The molecule `CCCc1c(CSc2nnc(SCc3ccc(OC(C)C(=O)O)cc3)s2)ccc(C(C)=O)c1O` (centres undefined) registered a melting point of 138 °C.

In turn, `CCOC(=O)CN1CCN(c2cc3c(cc2F)c(=O)c(C(=O)O)cn3C2CC2)CC1` registered a melting point of 192 to 194 °C.

Take `O=[N+]([O-])c1cccc2c1COCO2`: the melting point was 76 to 77 °C.

`CC(C)C(=NO)c1ccc(Br)cc1` showed a melting point of 126 to 136 °C.

In the case of `OCCCC1=NN(c2nccs2)C(O)(c2ccc(Cl)cc2)C1` (centres undefined), the melting point fell in the range of 146 to 147 °C.

Turning to `CCCCc1oc2ccccc2c1C(=O)c1nc(Br)c(-c2ccc(OC)cc2)o1`, the melting point lay within 62 to 64 °C.

With `COCOc1ccc(-c2ncc3ncc(NC(=O)c4cccnc4)cc3n2)cc1`, the melting point was found to be 232 °C.

`Cc1cc(O)c(SCc2ccc(F)cc2)c(=O)o1` returned a melting point of 114 to 118 °C.

`Cc1onc(C(=O)c2c(F)cccc2F)c1NC(=O)CBr` registered a melting point of 76 to 80 °C.

For `CCOC(=O)c1nnnn1Cc1ccc(OC)cc1`, the melting point amounted to 52 °C.

For the molecule `N#CC=Cc1ccc(Cl)s1`, the melting point is 41 to 43 °C.

Molecule `CN(C)S(=O)(=O)c1ccc(NC(=O)C2(C)CC2)cc1C(F)(F)F` returned a melting point of 153 to 156 °C.

As to `Cc1cc(Oc2cc(Cl)ccc2[N+](=O)[O-])n[nH]1`, the melting point lay in the range of 87 to 90 °C.

For `O=C(NCCCCCCNC(=O)c1ccc(Oc2ccccc2)cc1)c1ccc(Oc2ccccc2)cc1`, the melting point lay within 183 to 184 °C.

Molecule `CCc1nnc2c(Nc3ccc(Cl)cc3OC)nc3ccccc3n12` returned a melting point of 245 to 248 °C.

The molecule `N#CC(SCCc1ccc2c(c1)OCO2)C(=O)O` (centres undefined) had a melting point of 106 to 107 °C.

`CC1(C)C=C(c2ccccn2)c2ccc(Cl)c(Cl)c2OC1` came in with a melting point of 112 °C.

Molecule `CCCc1c(OCCCCc2ccc3cc(OC)c(OC)cc3c2)ccc(C(=O)O)c1O` registered a melting point of 147 to 148 °C.

As for `O=C1N(Cc2ccc(-c3cccc(Cl)c3)o2)c2ccccc2C12COc1cc3c(cc12)OCO3` (centres undefined), the melting point lay within 205 to 207 °C.

On to `O=C1OC2(CCN(C(=O)Nc3ncc(-c4ccccc4)cn3)CC2)c2cccc(F)c21`, for which the melting point was in the range of 247 to 249 °C.

`COc1ccccc1[C@H](C)C(=O)O` yielded a melting point of 102 °C.

In the case of `Clc1cn2c(Cl)cnc2cn1`, the melting point lay in the range of 115 to 116 °C.

In turn, `COc1cccc(-c2cccc(OC3SCC(OC(C)=O)C(OC(C)=O)C3OC(C)=O)c2)n1` (centres undefined) came in with a melting point of 195 °C.

Molecule `CSc1ccc(-c2nnc(Oc3ccc(F)cc3F)cc2-c2ccc(Cl)cc2)cc1` yielded a melting point of 163 to 164 °C.

With `CC(OCc1cc2cc(Cl)ccc2n1S(=O)(=O)c1ccc2c(c1)OCCN2C)C(=O)O` (centres undefined), the melting point stood at 68 °C.

In turn, `NN=C(N)Nc1c(Cl)cccc1Cl` showed a melting point of 281 °C.

The molecule `CC(=Cc1cc(Cl)ccc1O)[N+](=O)[O-]` yielded a melting point of 104 to 106 °C.

`COc1ccc(COc2cccc(OC)c2C(C)=O)cc1` yielded a melting point of 105 to 107 °C.

`COC(=O)Nc1nccc(Oc2ccc3c(C(=O)Nc4ccc(F)c(C(F)(F)F)c4)cccc3c2)n1` had a melting point of 204 to 205 °C.

Molecule `C[C@@H]1[C@@H](NC(=O)OCc2ccccc2)CN1S(=O)(=O)O` registered a melting point of 55 to 64 °C.

`O=C1C2CCCC2Nc2ccccc2N1Cc1ccccc1` (centres undefined) came in with a melting point of 172 to 173 °C.

Regarding `NC(C(=O)O)c1ccc(CC(=O)O)cc1` (centres undefined), the melting point is 250 °C.

Consider `CN(C)c1cccc2c(S(=O)(=O)Nc3cnc(Br)c(Cl)n3)cccc12`, for which the melting point was 180 to 182 °C.

The molecule `O=C(O)CCNc1c2ccc(Cl)cc2nc2c(=O)[nH][nH]c(=O)c12` showed a melting point of 356 to 359 °C.

In turn, `N=C(Nc1cccc(NC(=O)/C=C/c2ccc(Cl)cc2)c1)c1ccccc1` displayed a melting point of 109 to 110 °C.

Turning to `COC1(c2cc(F)cc(OCc3ccc(C(=O)O)cc3)c2)CCOCC1`, the melting point lay within 184 to 186 °C.

For the molecule `CCCCCCCc1ccc(C=Nc2ccc(C#N)cc2)cc1`, the melting point is 32.7 to 33 °C.
